Laboratory results: PubChem BioAssay AID720632 (Broad Institute, 2013)
Calls of active or inactive are those of the source. No rule for the calls is given here.

Biological target: Caspase-6 (Homo sapiens) (UniProt P55212)
Experiment: inhibition of CASP6 peptide cleavage – biochemical, VEID-R110 fluorescence, cherry-pick, dose response (AID 720632)
Conditions: caspase-6, VEID-R110 fluorogenic substrate; at 26 µM (top of the series)

Caspase-6 (Homo sapiens), sequence (P55212 24-179 limits assumed): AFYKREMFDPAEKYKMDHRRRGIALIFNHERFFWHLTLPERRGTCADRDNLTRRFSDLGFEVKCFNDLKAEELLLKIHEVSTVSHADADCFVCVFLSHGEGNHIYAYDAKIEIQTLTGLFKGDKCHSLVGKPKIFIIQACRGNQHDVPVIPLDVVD
Caspase-6 (Homo sapiens), sequence (P55212 194-293 limits assumed): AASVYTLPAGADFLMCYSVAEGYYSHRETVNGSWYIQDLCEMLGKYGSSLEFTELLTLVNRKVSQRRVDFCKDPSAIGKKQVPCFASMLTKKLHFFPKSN

Structure (SMILES)	activity change, negative = inhibition
O=C(NCC(c1ccco1)N1CCc2ccccc21)c1ccc([N+](=O)[O-])cc1 (centres undefined)	inactive
CO[C@@H]1CN(C)C(=O)c2ccc(NC(=O)c3ccccc3)cc2OC[C@H](C)N(C(=O)C2CC2)C[C@H]1C	inactive
CSc1ccc(CN2CCC2(C)C(=O)Nc2cccc(NS(C)(=O)=O)c2)cc1 (centres undefined)	inactive
O=C(NC1CC1)c1c(O)c2ccccc2[nH]c1=O	inactive
Cc1cccc(C)c1OCc1nc2ccccc2[nH]1	inactive
COc1cc(/C=C2\SC(=O)NC2=O)ccc1Oc1ccc([N+](=O)[O-])cc1[N+](=O)[O-]	inactive
Cc1ccc(C)c(S(=O)(=O)N2CCN(C(C)C(=O)Nc3ccccc3-c3ccccc3)CC2)c1 (centres undefined)	inactive
COc1ccccc1NC(=O)C(C)OC(=O)CCC1CCCCC1 (centres undefined)	inactive
CC1(C)C(=O)Nc2ccccc2N1C(=O)COC(=O)c1ccc([N+](=O)[O-])o1	inactive
NC[C@H](O)c1ccc(O)c(O)c1	inactive
O=C(CNC(=O)Cc1ccccc1)NCc1cccs1	inactive
Cc1cccc(-n2c(C)nc3cc(C(=O)NCCN4CCOCC4)ccc32)c1	inactive
Cc1cc(-n2nnc3ccccc32)nc2ccccc12	inactive
COC(=O)CN1C(=O)COc2ccc(S(=O)(=O)N3CCCCC3)cc21	inactive
c1ccc(CCNc2ccc3ncc(-c4cccc5ccccc45)n3n2)nc1	inactive
CN(CC(=O)Nc1ccccc1Cl)C(=O)COC(=O)c1cccs1	inactive
O=C(NN=C1CCCC1)c1n[nH]c2c1CCC2	inactive
CC(=O)N1CCc2c(sc(NC(=O)C3CCCCC3)c2C(N)=O)C1	inactive
COc1ccc(NC(=O)Nc2ccccc2F)c([N+](=O)[O-])c1	inactive
Oc1ccc(/C=N/n2c(-c3ccccc3)n[nH]c2=S)cc1Br	inactive
Cc1ccc2oc(C(=O)N(Cc3ccc(N(C)C)cc3)C3CCS(=O)(=O)C3)c(C)c2c1 (centres undefined)	inactive
COc1ccc(N2CCN(C(=O)CCCCCn3c(=S)[nH]c4cc5c(cc4c3=O)OCO5)CC2)cc1	inactive
Cc1onc(NC(=O)NC(=O)c2c(F)cccc2Cl)c1Br	inactive

Structure (SMILES)	activity change, negative = inhibition
CC(CN1CCCCC1)C(=O)NNC(=O)C12CC3CC(CC(C3)C1)C2 (centres undefined)	inactive
Cc1ccc(Nc2ncnc3sccc23)c(C)c1	inactive
CCCC(=O)Nc1ccc2c(c1)OC[C@@H](C)NC[C@H](C)[C@H](OC)CN(C)C2=O	inactive
CCOC(=O)c1c(NC(=O)C2CC(Cl)=CCC2C(=O)O)sc2c1CC(C)(C)OC2 (centres undefined)	inactive
C[C@@H](NC(=O)C[C@@H]1CC[C@@H](NC(=O)CN2CCOCC2)[C@@H](CO)O1)c1ccccc1	inactive
CSc1ccccc1OCc1cc(C(=O)N2CCc3c(Cl)cccc3C2)no1	inactive
OC(c1ccc(F)cc1)c1ncc(-c2ccccc2F)[nH]1 (centres undefined)	inactive
O=C(Nc1ccc2c(c1)OCCO2)C1CCCC1	inactive
CCC(=O)Nc1ccc2c(c1)OC[C@@H](C)N(Cc1ccccc1)C[C@@H](C)[C@@H](OC)CN(C)C2=O	inactive
O=C(C1CCN(c2ccc(N3CCOCC3)nn2)CC1)N1CCc2ccccc2C1	inactive
CC(C)CNC(=O)C1(C)CCCN1C(=O)Cc1cccc2ccccc12 (centres undefined)	inactive
O=C1c2ccccc2C(=O)C1(CO)c1ccccc1	inactive
C/C(=N\NC(=O)c1ccccc1O)C1CC1	inactive
COc1ccccc1C(=O)Nc1ccc2c(c1)OC[C@@H](C)N(CC1CC1)C[C@H](C)[C@@H](OC)CN(C)C2=O	inactive
O=C(NNC(=O)c1ccccc1O)c1ccccc1O	inactive
Cc1ccc(NS(=O)(=O)c2ccc(Br)s2)nc1	inactive
Oc1c(CN2CCCCC2)ccc2cccnc12	inactive
O=C(COC(=O)c1cccc(OC(F)F)c1)Nc1cccc(S(=O)(=O)N2CCCC2)c1	inactive
Cc1ccc(S(=O)(=O)N(CC(=O)Nc2ccccc2C(=O)O)c2cccc(Cl)c2C)cc1	inactive
O=C(Nc1ccc(F)cc1)N1CCN(C(=O)C2CCCO2)CC1 (centres undefined)	inactive
COc1ccc2oc(C(=O)N3CCN(c4ncccn4)CC3)c(C)c2c1	inactive
COc1cc(NC(=O)c2cccnc2)c(Cl)cc1NC(=O)c1ccccc1	inactive
Cn1c(NN=O)nc2ccccc21	inactive

Structure (SMILES)	activity change, negative = inhibition
CCC1=NN(C(=O)c2ccccc2O)C(O)(c2ccccc2)C1 (centres undefined)	inactive
CN1CCCCC(NC(=O)COCc2ccccc2)C1=O (centres undefined)	inactive
CO[C@@H]1CN(C)C(=O)c2ccc(NC(=O)C3CC3)cc2OC[C@H](C)N(CC2CCOCC2)C[C@H]1C	inactive
Nc1cccnc1Oc1ccc(F)cc1	inactive
COc1cccc(NS(=O)(=O)c2ccc3c(c2)NC(=O)CC(=O)N3)c1	inactive
O=C(N/N=C/c1cccc(O)c1)c1ccccc1O	inactive
COc1cccc(CNC(=O)CCn2ccc3cc(S(=O)(=O)N4CCCC4)ccc32)c1	inactive
CO[C@@H]1CN(C)C(=O)c2ccc(NC(=O)C3CC3)cc2OC[C@H](C)N(Cc2ccccc2)C[C@H]1C	inactive
O=C1CC(N2CCSCC2)C(=O)N1c1cccc(Cl)c1 (centres undefined)	inactive
COC(=O)c1cccc(NC(=O)c2cccc(N3C(=O)CCC3=O)c2)c1	inactive
CC1CCCN(CC(O)COC(c2ccccc2)c2ccccc2)C1 (centres undefined)	inactive
Cc1c(Cl)cccc1NC(=O)Nc1cc(C(C)(C)C)on1	inactive
CCC(=O)N1CCC1(C)C(=O)Nc1ccc2c(c1)CCN2C(C)=O (centres undefined)	inactive
COc1ccc(S(=O)(=O)n2cnc3ccccc32)cc1OC	inactive
CCC(=O)Nc1ccc2c(c1)OC[C@H](C)N(C(=O)C1CC1)C[C@H](C)[C@@H](OC)CN(C)C2=O	inactive
Cc1ccc2c(c1)c1c(n2CC(O)CN2CCC(C)CC2)CCCC1 (centres undefined)	inactive
CCCN1C[C@H](C)[C@H](OC)CN(C)C(=O)c2ccc(NC(=O)CC)cc2OC[C@@H]1C	inactive
CCOc1ccc(S(=O)(=O)NCCC(=O)NCC2(N3CCCCC3)CCCCC2)cc1	inactive
O=C(NC1CC2CCC(C1)N2Cc1ccccc1)c1ccccc1Br (centres undefined)	inactive
COCCNc1nc(Nc2ccccc2Cl)c2sc(-c3ccccc3)cc2n1	inactive
CCS(=O)(=O)c1nc(S(=O)(=O)c2ccc(Cl)cc2)c(N2CCOCC2)s1	inactive
CC(C)(C)NC(=O)C(=O)NN=C1CCCCCCCCCCC1	inactive
COc1ccccc1CNC(=O)COC(=O)c1ccc([N+](=O)[O-])o1	inactive

Structure (SMILES)	activity change, negative = inhibition
O=C(Oc1cccc(-n2cnnn2)c1)c1ccccc1Cl	inactive
O=C(N/N=C/c1ccc(O)cc1O)C(=O)N/N=C/c1ccc(O)cc1O	inactive
CN1CCN(NC(=O)NC2CCCCC2)CC1	inactive
Cc1ccc(C)c(N2N=C(C(=O)OCc3nnc(-c4ccccc4Br)o3)CCC2=O)c1	inactive
Cc1cc(NC(=O)C23CC4CC(C2)CC(n2cnc([N+](=O)[O-])n2)(C4)C3)no1	inactive
COc1ccccc1CN(C)C(=O)CN1CCN(CC(=O)Nc2ccccc2Cl)CC1	inactive
O=C1c2ccccc2[C@@H]2C[C@@H](O)[C@H](Nc3cccc4ccccc34)CCN12	inactive
CCOC(=O)CC1C(=O)NCCN1S(=O)(=O)c1cccc(C(F)(F)F)c1 (centres undefined)	inactive
CO[C@H]1CN(C)C(=O)c2ccc(NC(=O)C3CC3)cc2OC[C@@H](C)N(Cc2cccc(F)c2)C[C@H]1C	inactive
O=[N+]([O-])c1ccc2nc(-c3ccccc3[N+](=O)[O-])[nH]c2c1	inactive
CCC(C)CN1C(=O)CN(S(C)(=O)=O)CC1(C)C(=O)Nc1ccc2c(c1)OCCO2 (centres undefined)	inactive
CCCC(=O)Nc1ccc2c(c1)OC[C@@H](C)NC[C@@H](C)[C@@H](OC)CN(C)C2=O	inactive
Cc1ccc([N+](=O)[O-])cc1S(=O)(=O)Nc1ccc(C(=O)N2CCN(C(=O)c3ccco3)CC2)cc1	inactive
OC[C@H]1[C@H](c2ccc(-c3ccccc3F)cc2)[C@H]2CN(Cc3cccnc3)CCCCN21	inactive
C[C@H](CO)N1C[C@H](C)[C@@H](CN(C)C(=O)c2ccncc2)OCc2cnnn2CCCC1=O	inactive
COCCn1c(SCCN2CCOCC2)nc2c1c(=O)[nH]c(=O)n2C	inactive
O=C(c1cccc(S(=O)(=O)N2CCCCCC2)c1)N1CCN(c2ccccc2F)CC1	inactive
CCCCCn1nnnc1-c1nc2cc(C)c(C)cc2[nH]c1=O	inactive
CCCN1C[C@H](C)[C@H](OC)CN(C)C(=O)c2ccc(NC(=O)CC)cc2OC[C@H]1C	inactive
Cc1ccn2c(=S)[nH]nc2c1	inactive
